Measured values: patent US20110306572A1, “COMBINATION THERAPY FOR THE TREATMENT OF CANCER USING COX-2 INHIBITORS AND DUAL InHIBITORS OF EGFR [ErbB1] AND HER-2 [ErbB2]” (TRAGARA PHARMACEUTICALS, INC, priority 2007, published 2011)

How the values were obtained:
[1] = human, in vivo
[2] = patients taking lapatinib; cited from earlier work

Compound | gastric or duodenal toxicity [1] | patients with common side effects (rash, diarrhea, fatigue, palmar plantar erythrodysesthesia, nausea and vomiting) [2]
CCOc1ccc(-c2cc(C)cn2-c2ccc(S(N)(=O)=O)cc2)cc1 [2-(4-ethoxyphenyl)-4-methyl-1-(4-sulfamoylphenyl)-pyrrole] | no increase in gastric or duodenal toxicity | 
CS(=O)(=O)CCNCc1ccc(-c2ccc3ncnc(Nc4ccc(OCc5cccc(F)c5)c(Cl)c4)c3c2)o1 [Lapatinib, N-(3-chloro-4-{[(3-fluorophenyl)methyl]oxy}phenyl)-6-[5-({[2-methylsulfonyl)ethyl]amino}methyl)-2-furanyl]-4-quinazolinamine bis(4-methylbenzenesulfonate) monohydrate, bis(4-methylbenzenesulfonate) …] |  | greater than 20 % of patients
